Values of other authors in patent publication US11266662B2, “Ganaxolone for use in prophylaxis and treatment of postpartum depression” (Marinus Pharmaceuticals, Inc., priority 2018, dated 2022).

Tested on: patients
Settings: 60 μg and 90 μg brexanolone dose regimens, IV infusion; cited from earlier work

## CC(=O)[C@H]1CC[C@H]2[C@@H]3CC[C@H]4C[C@H](O)CC[C@]4(C)[C@H]3CC[C@]12C [brexanolone]
  Patients with abrupt loss of consciousness, syncope or presyncope: about 4%
